From US8575145B2, “Triazolopyridine compounds as PIM kinase inhibitors” (Array BioPharma Inc., priority 2008, dated 2013)
Structures can show the parent of a compound that is named as a salt.

Assays:
[1] = tested on: C57BL/6 mice immunized with hen egg lysozyme; test: T Cell In Vivo Functional Assay (HEL immunization, ex vivo recall); set-up: species or system mouse; conditions: 200 mg/kg oral twice a day, 7 days; relative to vehicle
Description: To determine the effect of compounds of Formula I on T cell responses, the following experiment was conducted. On Day O, C57BL/6 (Jackson Laboratories #000664, 6-8 weeks of age) were immunized at the base of the tail with 100 μg of hen egg lysozyme (HEL; Sigma #L7773) with complete Freund's adjuvant (CFA; Sigma #F5881). Starting on Day 0 and continuing until Day 7, mice were dosed twice a day by oral administration with vehicle (water) or the compound of Example 26 (200 mg/kg). On Day 7, opopiteal lymph nodes were removed, single cell suspensions were prepared and 500,000 cells in 200 μL were activated in 96 well plates with the indicated dose of HEL peptide. Following incubation for 72 hours at 37° C., 5% CO2, supernatants were harvested for IFNγ ELISA (R&D Systems catalog #MIF00) and proliferation was assessed using the CellTitre-Glo™ luminescent assay (Promega, Catalog #G7571) with both assays performed according to the manufacturer's protocol. ELISA plates were quantified relative to a standard curve using Molecular Devices Versamax Reader at […] and Softmax Pro software; proliferation was quantitated on a Packard TopCount instrument using luminescence protocol and data was analyzed using excel software.

[2] = tested on: C57BL/6J mice immunized with hen egg lysozyme; test: B Cell in vivo Functional Assay (HEL-specific antibody isotypes); set-up: species or system mouse; conditions: 200 mg/kg oral once a day, Day 21, vs vehicle
Description: To determine the effect of a compound of Formula I on B cell responses, the following experiment was conducted. On Day O, C57BL/6J mice (Jackson Laboratories #000664, 6-8 weeks of age) were immunized at the base of the tail with 20 μg of hen egg lysozyme (HEL; Sigma #L7773) with complete Freund's adjuvant (CFA; Sigma #F5881). Mice were re-immunized on day 7 with 20 μg HEL in alum (Pierce catalog #77161). Starting on Day 0 and continuing through Day 28, mice were dosed once a day by oral administration with vehicle (water) or the compound of Example 26 (200 mg/kg). Serum was collected on days 0, 7, 14, 21, and 28 and analyzed for HEL-specific total IgG, IgG1, IgG2a, IgG2b, and IgG3 antibody production by capture ELISA (antibodies purchased from Invitrogen, catalog #M30007, #M32107, #M32307, #M32507, #M32607). ELISA plates were quantitated using Molecular Devices Versamax reader at […]. The group mean titer of each antibody analyte was converted to percent of vehicle control (=100%).

F[C@@H]1CNCCC1Oc1cccc2ccc(-c3nnc4ccccn34)nc12 (stereo in doubt) [Example 26, 2-([1,2,4]triazolo[4,3-a]pyridin-3-yl)-8-((cis)-3-fluoropiperidin-4-yloxy)quinoline dihydrochloride]
decreased: ex vivo HEL-specific proliferation [1] | ex vivo IFNγ production [1] | HEL-specific IgG2a titer [2] | HEL-specific IgG2b titer [2] | HEL-specific IgG3 titer [2]
